Test results: patent US8946162B2, “Treatment of tumors” (priority 2008, dated 2015)

Experiments:
Ang II [1] = experiment: Determination of specific ACE2 activity (conversion of Ang II to Ang 1-7, RP-HPLC); assay type: biochemical
Description: Furthermore, both Ang II and Ang 1-7 peaks were recognised and integrated in the chromatograms. The peptide concentrations were determined using calibration curves. Enzymatic conversion and specific enzyme activity were also determined.

human tumour cell line = experiment: Suppression of tumour cell growth (cell count in haemocytometer); assay type: cell-based; settings: up to day 17; for cell growth (cell count): culture medium RPMI 1640 10% FCS supplemented with the substance alone (100 nM peptide or 20 μg/ml sACE2), versus control medium
Description: A human tumour cell line was sowed at a density of 2.5×10^4 cells/ml in 200 μl RPMI 1640 in 10% FCS in 96-well plates and incubated at 37° C. and 5% CO2. The influence of various active components of the RAS were evaluated using the following test systems. All the analyses were carried out as triple determinations (sACE2=soluble ACE2 without C-terminal membrane domain): • Condition A. Culture medium RPMI 1640 with 10% FCS as control • Condition B. Culture medium supplemented with 100 nM Ang II • Condition C. Culture medium supplemented with 100 nM Ang 1-7 • Condition D. Culture medium supplemented with 20 μg/ml sACE2 • Condition E. Culture medium supplemented with 20 μg/ml sACE2 and […]
Every day 100 μl of medium was removed and replaced by the same volume of fresh specific medium. The cell count was determined on days 2, 3, 6, 8, 10, 13, 15 and 17 by multiple counting in a haemocytometer. A separately prepared test plate was used for each determination.

[2] = Aggregation of the ACE2 preparation in physiological buffer; assay type: physicochemical; settings: concentrated protein solution in physiological buffer
Source text: The dimer-ACE2 preparation produced according to Example 1 is present as a stable, highly pure and concentrated protein solution in physiological buffer and can be stored and administered […].
The ACE2 preparation also has full enzyme activity.

[3] = Terminal half-life measured in various species; assay type: in vivo; settings: including rhesus monkeys
Source text: ACE2 is metabolised slowly due to the large, highly branched and complex sugar moiety.

Ang II [4] = settings: reaction conditions identical; material expressed in insect cells; cited from earlier work
[5] = 250 ng/ml ACE2, 80 μM Ang II, pH 6.5, 18 minutes at 37° C.

In the case of “ACE2 preparation produced according to Example 1: Soluble section of human ACE2 expressed in CHO, fully N-glycosylated, obtained as a dimer with two Zn2+”, the “catalytic activity kkat based on Ang II conversion” value (Ang II [1]; [5]) is reported as 8.0 ± 0.3 s⁻¹, the “catalytic activity kkat in relation to Ang 1-7 conversion” value (Ang II [1]; [5]) is reported as 8.8 ± 0.2 s⁻¹ and the “higher activity than the figures of Vickers et al.” value (Ang II [1]; present preparation versus Vickers material) is reported as 240%. The “cell growth (cell count)” value (human tumour cell line) was “marginally increased growth”, the “cell growth (cell count) in the presence of Ang II” value (human tumour cell line; culture medium supplemented with 20 μg/ml sACE2 and […]) was “reduced cell growth” and the aggregation to multimers [2] was “does not exhibit any aggregation to multimers”. For the same substance, the terminal half-life [3] was “at least 10.5 hours”.
For “Asp-Arg-Val-Tyr-Ile-His-Pro-Phe (DRVYIHPF; printed: Asp-Arg-Val-Tyr-Ile-His-Pro-Phe) [Ang II, reference compound]”, the “cell growth (cell count)” value (human tumour cell line) was “distinctly increased cell growth”.
In the case of “ACE2 (Vickers et al.): ACE2 of Vickers et al., expressed in insect cells, same amino acid sequence, glycosylated to a considerably lesser extent”, the “catalytic ACE2 activity published by Vickers et al.” value (Ang II [4]) is listed as 3.5 s⁻¹.
With “Ang 1-7: Effector peptide of the RAS, antagonist of Ang II, formed from Ang II by ACE2 (DRVYIHP; Angiotensin 1-7; UniProt P01019 25-31, looked up) [reference compound]” the “cell growth (cell count)” value (human tumour cell line) was “reduced cell growth”.
